Source: patent US8178506B2, “Oligomeric compounds and compositions for use in modulation of small non-coding RNAs” (Regulus Therapeutics Inc., priority 2003, dated 2012)
In the oligonucleotide strings, read from the 5' end, every base follows the letter of its sugar. An asterisk marks phosphorothioate; unmarked linkages are phosphodiester. Other units and linkages are bracketed, terminal groups are in braces. A string of capitals states the bases alone. e = 2'-O-(2-methoxyethyl) (MOE); [5mC] = 5-methylcytosine; d = 2'-deoxy (DNA)

Columns and labels:
HeLa cells = experiment: Cell cycle assay in HeLa cells; format: cell-based, human; details: for phase of the cell cycle in which cells arrest or delay: HeLa, 150 nM
T47D cells = experiment: Caspase-3 activity assay (apoptosis) in T47D cells; details: for apoptosis in T47D cells: caspase assay, conclusion from Tables 9-12; for apoptosis in T47D cells / Fold Increase over UTC (caspase activity): 200 nM; for Fold Increase over UTC (caspase-3 activity, apoptosis) / Fold Increase over UTC (caspase activity): T47D cells, 48 hours; for Fold Increase over UTC (caspase-3 activity, apoptosis): 200 nM oligomeric compound; for Fold Increase over UTC (caspase activity): relative to untreated control
[1] = system: BJ, B16-F10, T47D, T47Dp53 and HeLa cells; experiment: Cell cycle assay (propidium iodide flow cytometry), cell line panel; format: cell-based; details: 150 nM oligomeric compound, 4.5 μg/ml LIPOFECTIN, after 72 hours, propidium iodide flow cytometry
adipocytes = experiment: Triglyceride accumulation assay in adipocytes; format: cell-based, human; details: differentiating adipocytes transfected with oligomeric compound
aP2 = aP2 mRNA expression in adipocytes (real-time PCR); format: cell-based, human; details: differentiating adipocytes transfected with oligomeric compound
HSL = HSL mRNA expression in adipocytes (real-time PCR); format: cell-based, human; details: differentiating adipocytes transfected with oligomeric compound
Glut4 = Glut4 mRNA expression in adipocytes (real-time PCR); format: cell-based, human; details: differentiating adipocytes transfected with oligomeric compound
PPARγ = PPARγ mRNA expression in adipocytes (real-time PCR); format: cell-based, human; details: differentiating adipocytes transfected with oligomeric compound
[2] = HeLa cells, 150 nM oligomeric compound, 24 hours, relative to untreated control (UTC = 100)
[3] = HeLa cells, 150 nM oligomeric compound, 48 hours after treatment, relative to untreated control (UTC=100)

ISIS 328421: 5-10-5 2′-MOE gapmer PS; targets mir-30d pri-miRNA (eG*e[5mC]*eT*eT*eA*dG*d[5mC]*dT*dG*dT*dG*dT*d[5mC]*dT*dT*eA*e[5mC]*eA*eG*e[5mC])
phase of the cell cycle in which cells arrest or delay (HeLa cells; 24 hours): G2/M-phase | phase of the cell cycle in which cells arrest or delay (HeLa cells; 48 hours): S- and G2/M-phases | apoptosis in T47D cells (T47D cells): induce apoptosis

328697 (eG*e[5mC]*eT*eT*eG*dT*d[5mC]*d[5mC]*dA*d[5mC]*dA*d[5mC]*dA*dG*dT*eT*e[5mC]*eA*eA*e[5mC]; antisense) [compound 328697]
G1 (percentage of cells in phase of the cell cycle) [1]: 57.6% | G2/M (percentage of cells in phase of the cell cycle) [1]: 16% | S (percentage of cells in phase of the cell cycle) [1]: 26.4% | SubG1 (percentage of cells in phase of the cell cycle) [1]: 2.4% | aneuploid (percentage of cells) [1]: 13.5% | Fold Increase over UTC (caspase-3 activity, apoptosis) (T47D cells; experiment of Table 12): 1.0 fold

328421 (antisense eG*e[5mC]*eT*eT*eA*dG*d[5mC]*dT*dG*dT*dG*dT*d[5mC]*dT*dT*eA*e[5mC]*eA*eG*e[5mC]) [compound 328421]
% cells aneuploid (HeLa cells; [2]): 70% | % cells in cell cycle phase G1 (HeLa cells; [2]): 47% | % cells in cell cycle phase G2/M (HeLa cells; [2]): 200% | % cells in cell cycle phase S (HeLa cells; [2]): 105% | % cells in cell cycle phase subG1 (HeLa cells; [2]): 288% | % cells in cell cycle phase: G1 (HeLa cells; [3]): 30% | % cells in cell cycle phase: G2/M (HeLa cells; [3]): 198% | % cells in cell cycle phase: S (HeLa cells; [3]): 202% | % cells in cell cycle phase: aneuploid (HeLa cells; [3]): 64% | % cells in cell cycle phase: subG1 (HeLa cells; [3]): 1103% | Fold Increase over UTC (caspase activity) (T47D cells): 1.2

328400 (antisense eA*eG*eT*eT*e[5mC]*dA*dA*dA*dA*d[5mC]*dT*d[5mC]*dA*dA*dT*e[5mC]*e[5mC]*e[5mC]*eA*eA) [compound 328400]
TG (triglyceride accumulation) (adipocytes): 60 percentage of untreated control (UTC) | AP2 mRNA (aP2): 34 percentage of untreated control (UTC) | HSL mRNA (HSL): 40 percentage of untreated control (UTC) | GLUT4 mRNA (Glut4): 18 percentage of untreated control (UTC) | PPAR gamma mRNA (PPARγ): 67 percentage of untreated control (UTC) | Fold Increase over UTC (caspase activity) (T47D cells): 1.3

328434 (antisense e[5mC]*eG*e[5mC]*eA*eT*d[5mC]*dT*dT*dG*dA*d[5mC]*dT*dG*dT*dA*eG*e[5mC]*eA*eT*eG) [compound 328434]
TG (triglyceride accumulation) (adipocytes): 91 percentage of untreated control (UTC) | AP2 mRNA (aP2): 85 percentage of untreated control (UTC) | HSL mRNA (HSL): 96 percentage of untreated control (UTC) | GLUT4 mRNA (Glut4): 83 percentage of untreated control (UTC) | PPAR gamma mRNA (PPARγ): 79 percentage of untreated control (UTC) | Fold Increase over UTC (caspase-3 activity, apoptosis) (T47D cells; experiment of Table 12): 0.8 fold

328425 (antisense eG*eA*e[5mC]*e[5mC]*eT*dG*d[5mC]*dT*dA*d[5mC]*dT*d[5mC]*dA*d[5mC]*dT*e[5mC]*eT*e[5mC]*eG*eT) [compound 328425]
Fold Increase over UTC (caspase-3 activity, apoptosis) (T47D cells; experiment of Table 10): 0.8 fold

328378 (e[5mC]*eA*e[5mC]*e[5mC]*e[5mC]*dT*d[5mC]*d[5mC]*dA*dG*dT*dG*d[5mC]*dT*dG*eT*eT*eA*eG*eT; antisense) [compound 328378]
Fold Increase over UTC (caspase activity) (T47D cells): 1.0

SEQ ID NO 485: gapmer of Tables 9-12 having this SEQ ID NO (antisense eT*e[5mC]*eA*e[5mC]*eA*dA*dT*d[5mC]*d[5mC]*d[5mC]*d[5mC]*dA*d[5mC]*d[5mC]*dA*eA*eA*e[5mC]*eT*e[5mC])
apoptosis in T47D cells (T47D cells): prevent or have a protective effect from apoptosis

SEQ ID NO 516: gapmer of Tables 9-12 having this SEQ ID NO (antisense eA*eA*eT*eG*eG*dA*dG*d[5mC]*d[5mC]*dA*dA*dG*dG*dT*dG*e[5mC]*eT*eG*e[5mC]*e[5mC])
apoptosis in T47D cells (T47D cells): induce apoptosis
